Reference: ChEMBL document CHEMBL6109078, “Pyrylium derivatives as outer membrane permeabilizers against MDR gram-negative bacteria via multi-target mode of action” (Eur J Med Chem, 2025)
Calls of active or inactive are those of the source. No cut-off for these calls is given here.

Experiments:
[1] = system: Bacteria; experiment: Inhibition of His-tagged His-tagged LptA/LptC (unknown origin) protein-protein interaction extracted from Escherichia coli BL21 (DE3) cells by BLI analysis; settings: dose 0.39-1.56 µg/ml
[2] = system: Lipopolysaccharide (LPS); experiment: Binding affinity to LPS (unknown origin) assessed as exothermic heat release at 100 mM by ITC analysis; settings: time <= 40.0 min
[3] = molecular target: Lipopolysaccharide (LPS); experiment: Binding affinity to LPS (unknown origin) assessed as dissociation constant by BLI analysis
[4] = Binding affinity to His-tagged LptC (unknown origin) extracted from Escherichia coli BL21 (DE3) cells assessed as dissociation constant by BLI analysis; parameters: species or system Bacteria
[5] = system: Acinetobacter baumannii; experiment: Antibacterial activity against Acinetobacter baumannii ATCC 19606 infected in Galleria mellonella larvae assessed as survival rate of larvae at 50 microg/ml measured after 96 hrs relative to control; type: functional
[6] = system: Acinetobacter baumannii; experiment: Synergistic antibacterial activity against Acinetobacter baumannii ATCC 19606 infected in Galleria mellonella larvae assessed as survival rate of larvae at 50 microg/ml measured after 96 hrs in presence of polymyxin B relative to control; type: functional
[7] = system: Escherichia coli; experiment: Antibacterial activity against Escherichia coli ATCC 25922 infected in Galleria mellonella larvae assessed as survival rate of larvae at 50 microg/ml relative to control; type: functional
[8] = system: Escherichia coli; experiment: Induction of morphological changes in Escherichia coli ATCC 25922 assessed as appearance of longer bacterial cells at 6.25 microg/ml incubated for 1 hrs by optical microscopic analysis; type: functional, organism-based; settings: dose 6.25 µg/ml
[9] = system: Lipopolysaccharide (LPS); experiment: Binding affinity to LPS (unknown origin) by BLI analysis; settings: dose 3.13-25 µg/ml
[10] = system: Escherichia coli; experiment: Synergistic antibacterial activity against Escherichia coli ATCC 25922 infected in Galleria mellonella larvae assessed as survival rate of larvae at 50 microg/ml in presence of polymyxin B relative to control; type: functional
[11] = system: Bacteria; experiment: Binding affinity to His-tagged LptC (unknown origin) extracted from Escherichia coli BL21 (DE3) cells by BLI analysis

Structure (SMILES)	inhibition [1]	Activity [2]	Kd [3] [µM]	Kd [4] [µM]	survival at 50 µg/mL [5] [%]	survival at 50 µg/mL [6] [%]	survival at 50 µg/mL [7] [%]	Activity [8]	Activity [9]	survival at 50 µg/mL [10] [%]	Activity [11]
CCN(CC)c1ccc(/C=C/c2cc(C(C)(C)C)[o+]c(C(C)(C)C)c2)cc1.O=S(=O)([O-])C(F)(F)F	Dose-dependent-effect	Time-dependent-effect	4	0.49	10	80	20	Active	Dose-dependent-effect	70	
CC(C)(C)c1cc(/C=C/c2ccc(N3CCCC3)cc2)cc(C(C)(C)C)[o+]1.O=S(=O)([O-])C(F)(F)F				63.7				Active			
CN1CCOc2cc(/C=C/c3cc(C(C)(C)C)[o+]c(C(C)(C)C)c3)ccc21.O=S(=O)([O-])C(F)(F)F											inactive
